Experiments:
[1] = test system: type II collagen (collagen IIα1); assay: immunohistochemistry of calvarial organ cultures: type II collagen; assay type: cell-based, mouse; conditions: 200 nM, calvarial sections, not seen in control sections
Description: (§1) Calvarial Organ Cultures. Details have been published previously (Garrett, et al. (2003) J. Clin. Invest. 111:1771-82). Calvaria were cultured in BGJ medium supplemented with 1 mg/mL of bovine serum albumin (Cohn fraction V), 100 U/ml each of penicillin/streptomycin, and 0.292 mg/mL of glutamine. On Day 1, the calvaria were treated with synthetic oleanane triterpenoids. On Day 4, the medium was replaced with fresh medium, again containing synthetic oleanane triterpenoids. On Day 7, calvaria were collected, either stored at −80° C. for further RNA analysis or fixed in 10% buffered formalin for 24 hours and transferred to 80% ethanol for histologic analysis.
Histologic Analysis of Calvaria. After fixation for hours, calvaria were decalcified in EDTA, embedded in paraffin and sectioned at 4 μm. Sections were stained either with modified hematoxylin and eosin (H&E) or with toluidine blue (1% in 70% ethanol for 20 minutes, followed by destaining in 70%, 90% and 100% ethanol for 15 seconds), placed in xylene twice, and then mounted. Procedures for immunofluorescence staining have been described (Medici, et al. (2010) Nat. Med. 74:537-45). Primary antibodies against collagen type II (AB746P, Millipore), were used at 1:100 dilution; ALEXFLUOR secondary antibodies (Invitrogen) at 1:200 dilution. For nuclear staining, To-PRO-3 Iodide (T3605, Invitrogen) was used. […]

[2] = test system: SOX9; assay: Western blot in bone marrow stem cell cultures: SOX9; assay type: cell-based; conditions: 100 nM for 7 days, human BMSC cultures, not detectable in control
Description: (§2) Bone Marrow-Derived Stem Cell Culture and Immunoblotting. Human bone marrow-derived stromal cells, which contain a population of responsive mesenchymal stem cells (ScienCell Research Laboratories), were grown in mesenchymal stem cell medium (ScienCell Research Laboratories). Cells were serum-starved 24 hours prior to all experimental conditions. Immunoblotting was performed using the following antibodies at concentrations (and using protocols) recommended by the respective manufacturers: SOX9 (sc-20095, Santa Cruz Biotechnology), collagen IIα1 (sc-7764 and sc-28887, Santa Cruz), aggrecan (ab3778 and ab36861, Abcam), BMP-2 (ab14933, Abcam), phospho-Smad5 (9516, Cell Signaling Technology), Smad5 (9517, Cell Signaling Technology), β-actin (A1978, SigmaeAldrich). HRP-conjugated IgG TRUEBLOT reagents (18-8814, eBioscience) were used at a dilution of 1:1000.
(§3) Further studies on mechanism were pursued in human bone marrow stem cell (BMSC) cultures. […] BMP-2 is known to induce chondrogenic lineage development of human mesenchymal stem cells in culture (Schmitt, et al. (2003) Differentiation 71:567-77).

[3] = test system: COL2A1; assay: quantitative RT-PCR of calvarial organ cultures: COL2A1; assay type: cell-based; conditions: 7 days of culture, newborn mouse calvaria
Description: as §1
(§4) Quantitative RT-PCR (gRT-PCR). Detailed procedures for qRT-PCR are known in the art (Lee, et al. (2006) Biochem. Pharmacol. 72:332-43). In brief, 30 ng of RNA was reverse transcribed to cDNA using the random primers and Applied Biosystems' High Capacity cDNA Archive Kit in a 96-well format MASTERCYCLER Gradient from EPPENDORF. Subsequently, cDNA was amplified with ASSAYS-ON-DEMAND Products containing two gene specific primers and one TAQMAN MGB probe (6-FAM dye-labeled) using the TAQMAN Universal PCR Master Mix in an ABI PRISM 7000 Sequencing Detector (Applied Biosystems). All labeled primers were obtained from Applied Biosystems.
(§5) In addition to the histologic analysis of the calvarial cultures, mechanistic aspects of the action of both CDDO-EA and CDDO-Im were investigated in the calvaria. After 7 days of culture, RNA was isolated from the calvaria and quantitative RT-PCR analysis was performed for more than 15 different markers, including: SOX9, collagen IIα1, all three isoforms of TGF-β, BMPs 2 and 4, BMP receptor II, Smads 3, 4, 6, and 7, tissue inhibitors of metalloproteinases (TIMP-1 and TIMP-2), and matrix metalloproteinase-9 (MMP-9). […] The 50 nM dose was generally ineffective. In contrast, both triterpenoids were strong inhibitors of the expression of MMP-9; CDDO-EA (200 nM) caused almost 80% inhibition of the expression of this metalloproteinase, which is known to be involved in the degradation of cartilage (Shinoda, et al. (2008) J. Biol. Chem. 283:24632-9).

[4] = test system: newborn mouse calvaria; assay: histologic analysis of calvarial organ cultures (H&E, toluidine blue): chondrogenesis; assay type: cell-based; conditions: 200 nM, 7 days; for induction of chondrogenesis in newborn mouse calvaria (histology): H&E or toluidine blue sections; for formation of proteoglycans such as aggrecan (metachromatic toluidine blue staining): calvarial sections
Description: as §1
Histologic Analysis of Calvaria. After fixation for hours, calvaria were decalcified in EDTA, embedded in paraffin and sectioned at 4 μm. Sections were stained either with modified hematoxylin and eosin (H&E) or with toluidine blue (1% in 70% ethanol for 20 minutes, followed by destaining in 70%, 90% and 100% ethanol for 15 seconds), placed in xylene twice, and then mounted. Procedures for immunofluorescence staining have been described (Medici, et al. (2010) Nat. Med. 74:537-45). Primary antibodies against collagen type II (AB746P, Millipore), were used at 1:100 dilution; ALEXFLUOR secondary antibodies (Invitrogen) at 1:200 dilution. For nuclear staining, To-PRO-3 Iodide (T3605, Invitrogen) was used.
For the results described here, more than 300 individual calvarial organ cultures were performed. […] No new cartilage was seen on control sections stained with either H&E or toluidine blue. […] With toluidine blue, bone stained orthochromatically (blue).
With respect to dose-response to either synthetic oleanane, 200 nM appeared to be optimal. Treatment with 50 nM triterpenoid yielded only marginal induction of chondrogenesis, while treatment with 500 nM synthetic oleanane gave somewhat variable results. Treatment with […] triterpenoid was invariably toxic to the organ cultures.

[5] = test system: SOX9; assay: quantitative RT-PCR of calvarial organ cultures: SOX9; assay type: cell-based; conditions: 7 days of culture, newborn mouse calvaria
Description: as §1, §4, §5

[6] = test system: aggrecan; assay: Western blot in bone marrow stem cell cultures: aggrecan; assay type: cell-based; conditions: 100 nM for 7 days, human BMSC cultures, not detectable in control
Description: as §2, §3

[7] = test system: collagen type 2; assay: Western blot in bone marrow stem cell cultures: collagen type 2; assay type: cell-based; conditions: 100 nM for 7 days, human BMSC cultures, not detectable in control
Description: as §2, §3

## CC1(C)CC[C@]2(C(=O)n3ccnc3)CC[C@]3(C)[C@H](C(=O)C=C4[C@@]5(C)C=C(C#N)C(=O)C(C)(C)[C@@H]5CC[C@]43C)[C@@H]2C1 [CDDO-Im, 1-(2-cyano-3,12-dioxooleana-1,9(11)-dien-28-oyl) imidazole]
[1]
  formation of type II collagen (collagen IIα1), immunohistochemistry: induced the formation of type II collagen
[2]
  expression of chondrocyte marker SOX9 (Western blot): induced expression
[3]; 50 nM
  COL2A1 expression (quantitative RT-PCR): 1.45 ± 0.09
[3]; 200 nM
  COL2A1 expression (quantitative RT-PCR): 1.32 ± 0.23
[3]; 500 nM
  COL2A1 expression (quantitative RT-PCR): 1.72 ± 0.39
[4]
  induction of chondrogenesis in newborn mouse calvaria (histology): marked ability to induce chondrogenesis
  formation of proteoglycans such as aggrecan (metachromatic toluidine blue staining): induce the formation of proteoglycans
[5]; 50 nM
  SOX9 expression (quantitative RT-PCR): 1.26 ± 0.08
[5]; 200 nM
  SOX9 expression (quantitative RT-PCR): 1.33 ± 0.05
[5]; 500 nM
  SOX9 expression (quantitative RT-PCR): 1.83 ± 0.13
[6]
  expression of chondrocyte marker aggrecan (Western blot): induced expression
[7]
  expression of chondrocyte marker collagen type 2 (Western blot): induced expression

## CCNC(=O)[C@]12CCC(C)(C)C[C@H]1[C@H]1C(=O)C=C3[C@@]4(C)C=C(C#N)C(=O)C(C)(C)[C@@H]4CC[C@@]3(C)[C@]1(C)CC2 [CDDO-EA]
[1]
  formation of type II collagen (collagen IIα1), immunohistochemistry: induced the formation of type II collagen
[2]
  expression of chondrocyte marker SOX9 (Western blot): induced expression
[3]; 50 nM
  COL2A1 expression (quantitative RT-PCR): 4.12 ± 1.78
[3]; 200 nM
  COL2A1 expression (quantitative RT-PCR): 5.45 ± 1.13
[3]; 500 nM
  COL2A1 expression (quantitative RT-PCR): 3.18 ± 0.71
[4]
  induction of chondrogenesis in newborn mouse calvaria (histology): marked ability to induce chondrogenesis
  formation of proteoglycans such as aggrecan (metachromatic toluidine blue staining): induce the formation of proteoglycans
[5]; 50 nM
  SOX9 expression (quantitative RT-PCR): 1.64 ± 0.17
[5]; 200 nM
  SOX9 expression (quantitative RT-PCR): 2.62 ± 0.33
[5]; 500 nM
  SOX9 expression (quantitative RT-PCR): 3.12 ± 0.38
[6]
  expression of chondrocyte marker aggrecan (Western blot): induced expression
[7]
  expression of chondrocyte marker collagen type 2 (Western blot): induced expression

— patent US9205113B2, “Synthetic triterpenoids and methods for modulating stem/progenitor cell gene expression” (Trustees of Dartmouth College, priority 2012, dated 2015)
